The values below are quoted from earlier work in article PMC6709472 (Antimicrobial Agents and Chemotherapy, 2019).

pEC50: −log10 of the molar value. A value given as a limit tells only on which side of the number the result lay.

The conditions of series [1]: read-out: 50% effective concentration [EC50]; in vitro activity quoted for VL development.
Series [2] deals with visceral leishmaniasis (VL). The conditions noted are these: 12.5 mg/kg of body weight orally twice a day; hamster models of VL.

With `O=[N+]([O-])c1cn2c(n1)O[C@@H](COc1ccc(-c3ccc(F)cc3)nc1)CC2` [DNDI-0690], the pEC50 in series [1] was 6.77. For the same compound, the in vivo efficacy in series [2] is over 99%.
